Data taken from patent US11260027B2, “Donor organ pre-treatment formulation” (MUSC FOUNDATION FOR RESEARCH DEVELOPMENT, priority 2015, dated 2022).

Assays:
[1] = target: integrin αVβ3 on human umbilical vein endothelial cells (HUVEC) (human) (UniProt P06756); test: cell-based or functional assay
aortic allograft = test: Aortic allograft model of chronic allograft rejection (Balb/c to C57Bl/6); assay type: in vivo, mouse; settings: 100 or 1000 ng/ml tested; quantified intimal thickening
Experimental: Male Balb/c (H-2^d) and C57BL/6 (B6;H-2^b) mice (8-10 weeks) were obtained from Jackson laboratory (Bar Harbor, Me.). All mice weighed 25-30 g and were housed under specific pathogen-free conditions at the Medical University of South Carolina (Charleston, S.C.) and were used for transplantation studies. In the following series, transplants to male B6 mice were performed under clean conditions using Balb/c donors in the allograft group (Balb/c to B6, n=20) and B6 donors in the isograft group (B6 to B6, n=10). The mice were anesthetized with intraperitoneal injections of ketamine (75 mg/kg, Lloyd Laboratories, Shenandoah, Iowa, USA) and xylazine (16 mg/kg, Vedco, Inc., St. Joseph, Mo., USA) diluted in sterile normal saline. An operating microscope with 16×magnification was used for the surgical procedure. The cuff used for the anastamosis consisted of a 0.6 mm body and a 0.6 mm extension crafted from a 24 gauge polyimide catheter (inner diameter 0.5 mm, wall thickness 0.025 mm, cat. No. 141-0027, Vention Medical, NH, USA).
After satisfactory anesthetic was administered, the donor mouse was placed in supine position and a midline thoraco-abdominal incision was made. […] For orthotopic transplantation, the bowel was reflected cephalad, the colon was retracted to the animal's left side, and the seminal vesicles and testes were distracted caudally. […]

HUVEC = test system: HUVEC
Experimental: (§1) Human Umbilical Vein Endothelial Cells (HUVEC), complete endothelial growth medium-2 (EGM-2) and bullet kit were purchased from Lonza (Walkersville, Md.). Cells were grown and maintained in a humidified 37° C. and 5% CO2 atmosphere. Cells were expanded on T75 cm^2 polystyrene flasks to passage 5 and plated onto 6-well plates for experimental assays (Fischer Scientific, Pittsburgh, Pa.). MCEC, a normal mouse cardiac endothelial cell line from Cedarlane (Ontario, Canada), were cultured in Dulbecco's Modified Eagle Medium (DMEM) (Life Technologies, CA) supplemented with 10% fetal bovine serum (FBS) in a 37° C. incubator with humidified room air and 5% CO2.
(§2) M-Per lysis of Ecs was used as an assay control.

MCEC = test system: MCEC
Experimental: as §1, §2

Chain of integrin αVβ3 on human umbilical vein endothelial cells (HUVEC) (human) (P06756 31-1048, chain 1 of 2): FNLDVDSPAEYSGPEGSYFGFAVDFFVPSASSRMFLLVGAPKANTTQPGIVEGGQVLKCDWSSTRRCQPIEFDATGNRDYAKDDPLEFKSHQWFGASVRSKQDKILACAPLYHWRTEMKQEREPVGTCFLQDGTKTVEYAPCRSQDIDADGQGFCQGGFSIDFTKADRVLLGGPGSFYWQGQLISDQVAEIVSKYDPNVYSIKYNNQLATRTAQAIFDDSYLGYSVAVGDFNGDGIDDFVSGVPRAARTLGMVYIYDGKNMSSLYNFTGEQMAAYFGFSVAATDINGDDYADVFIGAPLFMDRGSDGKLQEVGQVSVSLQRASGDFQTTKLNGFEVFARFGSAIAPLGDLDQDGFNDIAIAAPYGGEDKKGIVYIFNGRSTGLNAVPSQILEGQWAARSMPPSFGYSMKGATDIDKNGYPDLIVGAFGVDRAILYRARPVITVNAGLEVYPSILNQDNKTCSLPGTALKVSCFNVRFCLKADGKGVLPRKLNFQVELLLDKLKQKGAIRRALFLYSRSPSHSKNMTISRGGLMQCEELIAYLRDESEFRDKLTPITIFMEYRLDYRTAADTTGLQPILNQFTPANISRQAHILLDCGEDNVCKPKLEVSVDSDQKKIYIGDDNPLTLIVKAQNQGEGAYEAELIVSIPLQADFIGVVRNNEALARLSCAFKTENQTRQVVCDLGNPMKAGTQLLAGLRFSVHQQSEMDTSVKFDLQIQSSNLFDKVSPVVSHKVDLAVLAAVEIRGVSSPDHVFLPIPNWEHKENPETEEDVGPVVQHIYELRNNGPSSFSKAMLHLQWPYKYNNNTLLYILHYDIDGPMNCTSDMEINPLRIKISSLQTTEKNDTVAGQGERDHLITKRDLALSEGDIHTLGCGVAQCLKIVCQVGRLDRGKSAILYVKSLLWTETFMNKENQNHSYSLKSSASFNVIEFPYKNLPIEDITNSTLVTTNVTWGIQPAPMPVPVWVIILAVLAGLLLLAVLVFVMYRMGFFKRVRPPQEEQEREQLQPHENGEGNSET
Chain of integrin αVβ3 on human umbilical vein endothelial cells (HUVEC) (human) (P05106 27-788, chain 2 of 2, further chain): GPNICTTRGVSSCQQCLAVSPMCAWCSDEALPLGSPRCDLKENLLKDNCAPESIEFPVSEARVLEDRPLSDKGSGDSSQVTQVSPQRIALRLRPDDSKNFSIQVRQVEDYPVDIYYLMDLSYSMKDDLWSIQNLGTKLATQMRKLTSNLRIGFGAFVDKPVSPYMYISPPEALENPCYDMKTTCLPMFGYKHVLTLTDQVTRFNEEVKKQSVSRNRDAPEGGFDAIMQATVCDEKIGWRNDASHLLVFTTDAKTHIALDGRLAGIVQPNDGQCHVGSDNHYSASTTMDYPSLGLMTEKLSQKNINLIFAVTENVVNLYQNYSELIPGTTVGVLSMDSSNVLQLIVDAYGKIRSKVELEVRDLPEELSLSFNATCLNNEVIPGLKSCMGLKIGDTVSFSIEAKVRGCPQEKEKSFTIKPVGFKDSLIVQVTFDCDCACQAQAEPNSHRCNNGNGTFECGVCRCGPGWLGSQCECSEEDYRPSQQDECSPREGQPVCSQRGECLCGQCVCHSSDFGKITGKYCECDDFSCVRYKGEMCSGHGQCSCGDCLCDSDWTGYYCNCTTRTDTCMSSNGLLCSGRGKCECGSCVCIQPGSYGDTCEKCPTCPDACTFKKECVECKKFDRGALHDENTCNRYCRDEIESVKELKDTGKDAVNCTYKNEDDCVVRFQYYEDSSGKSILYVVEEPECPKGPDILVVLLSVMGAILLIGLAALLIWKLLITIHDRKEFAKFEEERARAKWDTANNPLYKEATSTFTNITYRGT

increase of fluorescence in HUVEC over a 6 hours period, without brefeldin A (-BA) [1] [%]	micelle internalization into HUVEC (confocal microscopy, Dylight 680 fluorescence) compared to untargeted RaM [1] [%]	Compound	dose in Belzer UW solution that provided protection (aortic allograft) [ng/mL]	cell toxicity and death (MTS cell viability) (HUVEC)	concentration that did induce toxicity (HUVEC; human, 6 h) [ng/mL]	cell toxicity and death (MTS cell viability) (MCEC)	concentration that did induce toxicity (MCEC; mouse, 6 h) [ng/mL]
88	> 50	Targeted Rapamycin Micelles (TRaM): rapamycin micelles bearing the cyclic peptide arginine-glycine-aspartate (cRGD) on the surface, labeled with Dylight 680					
		CO[C@H]1C[C@@H]2CC[C@@H](C)[C@@](O)(O2)C(=O)C(=O)N2CCCC[C@H]2C(=O)O[C@H]([C@H](C)C[C@@H]2CC[C@@H](O)[C@H](OC)C2)CC(=O)[C@H](C)/C=C(\C)[C@@H](O)[C@@H](OC)C(=O)[C@H](C)C[C@H](C)/C=C/C=C/C=C/1C [free rapamycin, rapamycin]	1000	do not result in significant cell toxicity and death	3000	do not result in significant cell toxicity and death	3000
